Drawing on patent publication US9845310B2 (priority 2015, dated 2017), this text covers EC50 for 21 compounds.

SMILES strings stand for the structures.

The target of one experiment is APJ (Homo sapiens (Human), UniProt P35414). Briefly: [35S]GTPγS binding assay on membranes from CHO cells stably expressing human APJ receptor. To be noted: Activity hAPJ SPA EC50 IP (μM). The format is biochemical. (GTPγS resists hydrolysis and so accumulates on activated G proteins.)
Sequence of APJ (P35414 whole entry): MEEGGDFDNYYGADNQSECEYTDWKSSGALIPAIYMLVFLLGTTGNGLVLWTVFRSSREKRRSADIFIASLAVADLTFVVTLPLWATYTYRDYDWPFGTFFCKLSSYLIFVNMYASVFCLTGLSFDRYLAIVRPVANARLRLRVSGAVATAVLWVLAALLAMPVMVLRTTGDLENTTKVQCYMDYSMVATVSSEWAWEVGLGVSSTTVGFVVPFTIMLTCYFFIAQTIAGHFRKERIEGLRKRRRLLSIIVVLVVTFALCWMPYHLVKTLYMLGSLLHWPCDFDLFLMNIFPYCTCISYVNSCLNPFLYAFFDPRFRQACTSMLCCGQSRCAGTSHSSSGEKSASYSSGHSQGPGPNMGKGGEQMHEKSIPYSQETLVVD
By EC50 is commonly meant the midpoint of the concentration-response curve. In turn, `COc1cccc(OC)c1-n1c(NS(=O)(=O)[C@@H](C)[C@H](OC)c2ccc(Cl)cn2)nnc1-c1cccnc1` (mixture of isomers) [Example 529.0, (1S,2R)-1-(5-chloro-2-pyridinyl)-N-(4-(2,6-dimethoxyphenyl)-5-(3-pyridinyl)-4H-1,2,4-triazol-3-yl)-1-methoxy-2-propanesulfonamide and (1R,2S)-1-(5-chloro-2-pyridinyl)-N-(4-(2,6-dimethoxyphenyl)-5-(3-pyridinyl)-4H-1,2,4-triazol-3-yl)-1-methoxy-2-propanesulfonamide] returned an EC50 of 0.00048 µM.
In the case of `COc1cccc(OC)c1-n1c(NS(=O)(=O)[C@@H](C)[C@H](OC)c2ncnn2C)nnc1-c1cncc(C)c1` (single isomer, unassigned) [Example 781.0, (1R,2S)-N-(4-(2,6-dimethoxyphenyl)-5-(5-methyl-3-pyridinyl)-4H-1,2,4-triazol-3-yl)-1-methoxy-1-(1-methyl-1H-1,2,4-triazol-5-yl)-2-propanesulfonamide or (1S,2R)-N-(4-(2,6-dimethoxyphenyl)-5-(5-methyl-3-pyridinyl)-4H-1,2,4-triazol-3-yl)-1-methoxy-1-(1-methyl-1H-1,2,4-triazol-5-yl)-2-propanesulfonamide], the half-maximal effective concentration (EC50) came out at 0.59 µM.
On the same count and under the same terms, the same measure for `COc1cccc(-c2nnc(NS(=O)(=O)C[C@H](O)c3ccc(C#N)cn3)n2-c2c(OC)cccc2OC)n1` (mixture of isomers) [Example 331.0, (R)-2-(5-cyanopyridin-2-yl)-N-(4-(2,6-dimethoxyphenyl)-5-(6-methoxypyridin-2-yl)-4H-1,2,4-triazol-3-yl)-2-hydroxyethanesulfonamide and (S)-2-(5-cyanopyridin-2-yl)-N-(4-(2,6-dimethoxyphenyl)-5-(6-methoxypyridin-2-yl)-4H-1,2,4-triazol-3-yl)-2-hydroxyethanesulfonamide]: 0.00024 µM; for `COc1cccc(-c2nnc(NS(=O)(=O)[C@@H](C)[C@H](O)c3ccc(F)cc3)n2-c2c(OC)cccc2OC)n1` (mixture of isomers) [Example 283.0]: 0.00096 µM; for `COc1cccc(-c2nnc(NS(=O)(=O)C[C@H](OC)c3ccc(C#N)cc3S(C)(=O)=O)n2-c2c(OC)cccc2OC)n1` (mixture of isomers) [Example 484.0, (2R)-2-(4-cyano-2-(methylsulfonyl)phenyl)-N-(4-(2,6-dimethoxyphenyl)-5-(6-methoxy-2-pyridinyl)-4H-1,2,4-triazol-3-yl)-2-methoxyethanesulfonamide and (2S)-2-(4-cyano-2-(methylsulfonyl)phenyl)-N-(4-(2,6-dimethoxyphenyl)-5-(6-methoxy-2-pyridinyl)-4H-1,2,4-triazol-3-yl)-2-methoxyethanesulfonamide]: 0.00026 µM.
Same read-out and setting: the same measure for `CO[C@H](c1ncc(C)cn1)[C@H](C)S(=O)(=O)Nc1nnc(-c2cncc(C)c2)n1-c1c(C)cccc1C` [Example 673.0, (1R,2S)-N-(4-(2,6-dimethylphenyl)-5-(5-methyl-3-pyridinyl)-4H-1,2,4-triazol-3-yl)-1-methoxy-1-(5-methyl-2-pyrimidinyl)-2-propanesulfonamide 2,2,2-trifluoroacetate]: 0.022 µM; for `COc1cccc(-c2nnc(NS(=O)(=O)[C@H](C)[C@H](OC(C)C)c3ncc(C)cn3)n2-c2c(OC)cccc2OC)n1` (single isomer, unassigned) [Example 98.0]: 0.0099 µM.
Still for that read-out and setting: the same measure for `COc1cccc(OC)c1-n1c(NS(=O)(=O)[C@@H](C)[C@H](C)c2ncc(C#N)cn2)nnc1-c1cncc(C)c1` [Example 697.0, (2S,3R)-3-(5-cyano-2-pyrimidinyl)-N-(4-(2,6-dimethoxyphenyl)-5-(5-methyl-3-pyridinyl)-4H-1,2,4-triazol-3-yl)-2-butanesulfonamide]: 0.0007 µM.
Compound `COc1cccc(-c2nnc(NS(=O)(=O)CCc3ccc(C#N)cn3)n2-c2c(OC)cccc2OC)n1` [Example 550.0, 2-(5-cyanopyridin-2-yl)-N-(4-(2,6-dimethoxyphenyl)-5-(6-methoxypyridin-2-yl)-4H-1,2,4-triazol-3-yl)ethanesulfonamide] gave an EC50 of 0.0008 µM.
The same measure, in the same setting: the same measure for `COc1cccc(-c2nnc(NS(=O)(=O)C[C@H](OC)c3ccc(F)cn3)n2-c2c(OC)cccc2OC)n1` (mixture of isomers) [Example 328.0, (2R)-N-(4-(2,6-dimethoxyphenyl)-5-(6-methoxy-2-pyridinyl)-4H-1,2,4-triazol-3-yl)-2-(5-fluoro-2-pyridinyl)-2-methoxyethanesulfonamide and (2S)-N-(4-(2,6-dimethoxyphenyl)-5-(6-methoxy-2-pyridinyl)-4H-1,2,4-triazol-3-yl)-2-(5-fluoro-2-pyridinyl)-2-methoxyethanesulfonamide]: 0.00033 µM; for `COc1cnc([C@H](O)[C@@H](C)S(=O)(=O)Nc2nnc(-c3cccnc3)n2-c2c(OC)cccc2OC)cn1` (mixture of isomers) [Example 703.0, (1R,2S)-N-(4-(2,6-dimethoxyphenyl)-5-(3-pyridinyl)-4H-1,2,4-triazol-3-yl)-1-hydroxy-1-(5-methoxy-2-pyrazinyl)-2-propanesulfonamide and (1S,2R)-N-(4-(2,6-dimethoxyphenyl)-5-(3-pyridinyl)-4H-1,2,4-triazol-3-yl)-1-hydroxy-1-(5-methoxy-2-pyrazinyl)-2-propanesulfonamide]: 0.002 µM.

The same experiment, now with this note: read-out: Activity hAPJ SPA EC50 IP.
As to `COc1cccc(OC)c1-n1c(NS(=O)(=O)[C@@H](C)[C@H](O)c2ccc(C#N)cc2)nnc1-c1cncc(C)c1` (mixture of isomers) [Example 247.0, (1R,2S)-1-(4-cyanophenyl)-N-(4-(2,6-dimethoxyphenyl)-5-(5-methyl-3-pyridinyl)-4H-1,2,4-triazol-3-yl)-1-hydroxy-2-propanesulfonamide and (1S,2R)-1-(4-cyanophenyl)-N-(4-(2,6-dimethoxyphenyl)-5-(5-methyl-3-pyridinyl)-4H-1,2,4-triazol-3-yl)-1-hydroxy-2-propanesulfonamide], the 50% effective concentration (EC50) stood at 0.0038 µM.
The same measure, in the same setting: to `COc1cccc(-c2nnc(NS(=O)(=O)[C@@H]3CCCO[C@@H]3c3ncc(C)cn3)n2-c2c(OC)cccc2OC)n1` (single isomer, unassigned) [Example 654.0] belongs 0.15 µM; to `CCNC(=O)c1cccc(-c2nnc(NS(=O)(=O)[C@@H](C)Cc3ncc(F)cn3)n2-c2c(OC)cccc2OC)n1` (mixture of isomers) [Example 228.0, 6-(4-(2,6-dimethoxyphenyl)-5-((((1S)-2-(5-fluoro-2-pyrimidinyl)-1-methylethyl)sulfonyl)amino)-4H-1,2,4-triazol-3-yl)-N-ethyl-2-pyridinecarboxamide and 6-(4-(2,6-dimethoxyphenyl)-5-((((1R)-2-(5-fluoro-2-pyrimidinyl)-1-methylethyl)sulfonyl)amino)-4H-1,2,4-triazol-3-yl)-N-ethyl-2-pyridinecarboxamide], 0.0053 µM; to `COc1cccc(OC)c1-n1c(NS(=O)(=O)[C@@H]2CCCO[C@@H]2c2ncc(C)cn2)nnc1-c1cncc(C)c1` (single isomer, unassigned) [Example 645.0], 0.06 µM.
Still for that read-out and setting: the same measure for `COc1cccc(OC)c1-n1c(NS(=O)(=O)[C@@H](C)[C@H](C)c2ncc(F)c([C@@H]3COCCO3)n2)nnc1-c1cccc(OCC(O)(C(F)(F)F)C(F)(F)F)n1` (single isomer, unassigned) [Example 639.0]: 0.16 µM; for `COc1cccc(OC)c1-n1c(NS(=O)(=O)[C@@H](C)[C@H](C)c2ncc(F)c([C@@H]3COCCO3)n2)nnc1-c1cccc(OCC(O)(C(F)(F)F)C(F)(F)F)n1` (single isomer, unassigned) [Example 640.0]: 0.33 µM.
The same measure, in the same setting: to `COc1cccc(OC)c1-n1c(NS(=O)(=O)[C@@H](C)[C@H](OC)c2ncc(C)o2)nnc1-c1cncc(C)c1` (single isomer, unassigned) [Example 633.0, (1S,2R)-N-(4-(2,6-dimethoxyphenyl)-5-(5-methylpyridin-3-yl)-4H-1,2,4-triazol-3-yl)-1-methoxy-1-(5-methyloxazol-2-yl)propane-2-sulfonamide or (1R,2S)-N-(4-(2,6-dimethoxyphenyl)-5-(5-methylpyridin-3-yl)-4H-1,2,4-triazol-3-yl)-1-methoxy-1-(5-methyloxazol-2-yl)propane-2-sulfonamide] belongs 0.0069 µM; to `CCO[C@@H](c1cnc(C)cn1)[C@@H](C)S(=O)(=O)Nc1nnc(-c2cccc(OC)n2)n1-c1c(OC)cccc1OC` (single isomer, unassigned) [Example 588.0, (1S,2R)-N-(4-(2,6-dimethoxyphenyl)-5-(6-methoxy-2-pyridinyl)-4H-1,2,4-triazol-3-yl)-1-ethoxy-1-(5-methyl-2-pyrazinyl)-2-propanesulfonamide or (1R,2S)-N-(4-(2,6-dimethoxyphenyl)-5-(6-methoxy-2-pyridinyl)-4H-1,2,4-triazol-3-yl)-1-ethoxy-1-(5-methyl-2-pyrazinyl)-2-propanesulfonamide], 0.00052 µM.
For the compound `COc1cccc(-c2nnc(NS(=O)(=O)[C@@H]3CCCO[C@@H]3c3ncc(C)cn3)n2-c2c(OC)cccc2OC)n1` (single isomer, unassigned) [Example 657.0], the concentration giving a half-maximal response (EC50) turned out to be 0.014 µM.
Take `COc1cccc(OC)c1-n1c(NS(=O)(=O)[C@@H](C)[C@H](O)c2ccc(C#N)cc2)nnc1-c1cncc(C)c1` (single isomer, unassigned) [Example 249.0, (1R,2S)-1-(4-cyanophenyl)-N-(4-(2,6-dimethoxyphenyl)-5-(5-methyl-3-pyridinyl)-4H-1,2,4-triazol-3-yl)-1-hydroxy-2-propanesulfonamide or (1S,2R)-1-(4-cyanophenyl)-N-(4-(2,6-dimethoxyphenyl)-5-(5-methyl-3-pyridinyl)-4H-1,2,4-triazol-3-yl)-1-hydroxy-2-propanesulfonamide]: the EC50 is 0.0011 µM.
